The values that follow come from patent US20120165310A1, “ETHER DERIVATIVES OF BICYCLIC HETEROARYLS” (NOVARTIS AG, priority 2009, published 2012).

For the assay, the target named is T1, IGF-1R (Homo sapiens, UniProt P08069).
T1 construct: expressed in transfected cells; host or cells: Hek293 (Hek293-IGF1R)
T1 sequence (P08069 31-1367): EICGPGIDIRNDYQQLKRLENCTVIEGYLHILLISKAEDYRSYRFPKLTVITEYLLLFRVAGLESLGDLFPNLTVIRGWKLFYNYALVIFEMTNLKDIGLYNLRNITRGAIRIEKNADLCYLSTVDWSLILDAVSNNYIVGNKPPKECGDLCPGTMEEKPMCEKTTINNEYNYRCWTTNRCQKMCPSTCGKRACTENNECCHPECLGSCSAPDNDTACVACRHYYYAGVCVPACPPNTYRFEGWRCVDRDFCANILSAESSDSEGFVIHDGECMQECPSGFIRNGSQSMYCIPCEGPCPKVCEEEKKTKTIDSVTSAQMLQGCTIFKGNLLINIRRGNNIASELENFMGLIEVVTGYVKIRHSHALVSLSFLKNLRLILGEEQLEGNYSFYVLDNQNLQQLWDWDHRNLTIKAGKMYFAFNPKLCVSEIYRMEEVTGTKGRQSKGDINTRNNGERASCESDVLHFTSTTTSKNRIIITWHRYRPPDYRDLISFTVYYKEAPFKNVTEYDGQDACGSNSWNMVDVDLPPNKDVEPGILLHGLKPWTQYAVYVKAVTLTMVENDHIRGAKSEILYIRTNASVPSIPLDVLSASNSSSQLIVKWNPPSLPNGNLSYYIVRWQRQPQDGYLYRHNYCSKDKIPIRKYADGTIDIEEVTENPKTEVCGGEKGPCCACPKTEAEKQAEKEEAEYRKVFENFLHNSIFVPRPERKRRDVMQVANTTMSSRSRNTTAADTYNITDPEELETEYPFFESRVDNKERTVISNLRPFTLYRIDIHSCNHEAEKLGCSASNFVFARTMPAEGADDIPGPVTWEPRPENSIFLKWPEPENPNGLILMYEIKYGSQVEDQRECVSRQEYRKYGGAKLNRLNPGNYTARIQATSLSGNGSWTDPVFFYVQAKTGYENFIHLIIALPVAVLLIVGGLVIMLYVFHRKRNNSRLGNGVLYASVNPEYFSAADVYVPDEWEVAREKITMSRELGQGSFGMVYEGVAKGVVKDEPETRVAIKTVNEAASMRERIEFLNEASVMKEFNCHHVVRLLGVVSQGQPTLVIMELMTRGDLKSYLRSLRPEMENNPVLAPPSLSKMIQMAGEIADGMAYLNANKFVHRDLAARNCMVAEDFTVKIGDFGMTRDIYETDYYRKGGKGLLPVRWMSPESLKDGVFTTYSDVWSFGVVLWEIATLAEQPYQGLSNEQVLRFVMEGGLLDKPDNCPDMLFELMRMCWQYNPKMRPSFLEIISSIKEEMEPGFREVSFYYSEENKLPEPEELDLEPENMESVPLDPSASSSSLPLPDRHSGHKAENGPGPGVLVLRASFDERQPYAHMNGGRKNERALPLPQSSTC
The assay is described as follows: Cellular IGF-1R assay: capture ELISA (MSD) of receptor phosphorylation in Hek293 cells. The format is cell-based. The following applies: Hek293-IGF1R cells, 1 h pre-incubation, 10 min IGF stimulation, pIGF1R capture ELISA. The protocol:
(§1) In this assay the activity of the compounds of the invention against Insulin-like growth factor I (IGF-I) induced autophosphorylation of the IGF-IR was determined. The assay was conducted as follows: Compound-mediated inhibition of IGF1R and INSR phosphorylation in Hek293 cells transduced with the corresponding receptors was assessed in a capture ELISA format using the MSD (Meso Scale Discovery) platform. Briefly, 30,000 cells washed and diluted in starvation medium (DMEM high glucose supplemented with 0.1% BSA) were seeded in 90 μL per well into 96-well plates pre-coated with poly-D-lysine (0.1 mg/mL in PBS/O). After 24 h incubation at 37° C. and 5% CO2, dose-response effects were determined with 3-fold serial compound dilutions, starting at 10 μM. The final vehicle concentration is 0.1% DMSO in all wells. Following pre-incubation with compounds for 1 h, receptor phosphorylation was triggered by a 10 min exposure to 1.0 ng/μL IGF for Hek293-IGF1R cells, and 5.0 ng/μL insulin for Hek293-InsR cells. Cell lysis was achieved by addition of 80 μL MSD lysis buffer per aspirated well, incubation on ice for 20 min, and a freeze-thaw cycle. Target phosphorylation was then assessed by transferring volumes corresponding to approx. 6 μg Hek293-IGF1R or 0.6 μg Hek293-InsR lysates to MSD assay plates pre-coated with total-IGF1R or total-InsR Abs, respectively. […] Immune complexes were detected by a SULFO-Tag™-coupled anti-rabbit IgG antibody in the presence of 150 μL MSD read-buffer. Light emission at 620 nm triggered by application of electric current was recorded on a MSD Sectorlmager 6000. Acquired raw data (mean Ru-ECL units) were processed in an Excel analysis template. The plate blank (MSD lysis buffer) was subtracted from all data points. The effect of a particular test compound concentration on receptor phosphorylation was expressed relative to the window defined by ligand-stimulated vs unstimulated control cells (set as 100%). IC50 values [nM] were determined using 4-parametric curve-fitting (XLfit software, V4.3.2).
as §1, with “Compound-mediated” for “In this assay the activity of the compounds of the invention against Insulin-like growth factor I (IGF-I) induced autophosphorylation of the IGF-IR was determined. The assay was conducted as follows: Compound-mediated”, “cells trans-duced” for “cells transduced”, “receptors were” for “receptors was”, “concentration was” for “concentration is”, “for Hek293-IGF1 R” for “for Hek293-IGF1R”, “with total-IGF1 R” for “with total-IGF1R”
Regarding `NC(=O)[C@@H]1CCCN1C[C@H]1C[C@@H](n2cc(-c3cccc(OCC4CCCO4)c3)c3c(N)ncnc32)C1` (stereo partly drawn) [Example 76, (S)-1-(cis-3-{4-amino-5-[3-(tetrahydro-furan-2-ylmethoxy)-phenyl]-pyrrolo[2,3-d]pyrimidin-7-yl}-cyclobutylmethyl)-pyrrolidine-2-carboxylic acid amide], half-maximal inhibition (IC50) was put at 39 nM.

In turn, `Nc1ncnc2c1c(-c1cccc(OCC34CCC(CC3)O4)c1)cn2[C@H]1C[C@](O)(CN2CC(O)C2)C1` [Example 199, (Z)-1-(3-{4-Amino-5-[3-(7-oxa-bicyclo[2.2.1]hept-1-ylmethoxy)-phenyl]-pyrrolo[2,3-d]pyrimidin-7-yl}-1-hydroxy-cyclobutylmethyl)-azetidin-3-ol] registered an IC50 of 201 nM.

As to `Nc1ncnc2c1c(-c1cccc(OCC34CCC(CC3)O4)c1)cn2[C@H]1CC[C@@H](CO)CC1` [Example 110, ((1S,4S)-4-(5-(3-(7-oxabicyclo[2.2.1]heptan-1-ylmethoxy)phenyl)-4-amino-7H-pyrrolo[2,3-d]pyrimidin-7-yl)-cyclohexyl)methanol], the 50% inhibitory concentration (IC50) was determined as 590 nM.

On to `NC[C@]1(O)C[C@@H](n2cc(-c3cccc(OCC45CCC(CC4)O5)c3)c3c(N)ncnc32)C1` [Example 208, (Z)-1-Aminomethyl-3-{4-amino-5-[3-(7-oxa-bicyclo[2.2.1]hept-1-ylmethoxy)-phenyl]-pyrrolo[2,3-d]pyrimidin-7-yl}-cyclobutanol], for which the IC50 was found to be 175 nM.

The compound `Nc1ncnc2c1c(-c1cccc(OC[C@@H]3CCCO3)c1)cn2[C@H]1C[C@@H](CN2CCS(=O)(=O)CC2)C1` [Example 4, cis-7-(3-[(1,1-dioxidothiomorpholin-4-yl)methyl]cyclobutyl}-5-{3-[(2S)-tetrahydrofuran-2-ylmethoxy]phenyl}-7H-pyrrolo[2,3-d]pyrimidin-4-amine] showed an IC50 of 36 nM.

Compound `Nc1ncnc2c1c(-c1cccc(OC[C@@H]3CCCO3)c1)cn2[C@H]1C[C@@H](CN2CCC(F)(F)CC2)C1` [Example 16, cis-7-[3-(4,4-Difluoro-piperidin-1-ylmethyl)-cyclobutyl]-5-{3-[(S)-1-(tetrahydrofuran-2-yl)methoxy]-phenyl}-7H-pyrrolo[2,3-d]pyrimidin-4-ylamine] yielded an IC50 of 90 to 219 nM.

Compound `CNC(=O)[C@H]1CCCN1C[C@H]1C[C@@H](n2cc(-c3cccc(OCC4CCCCO4)c3)c3c(N)ncnc32)C1` (stereo partly drawn) [Example 100, (2R)-1-(((1R,3R)-3-(4-amino-5-(3-((tetrahydro-2H-pyran-2-yl)methoxy)phenyl)-7H-pyrrolo[2,3-d]pyrimidin-7-yl)cyclobutyl)methyl)-N-methylpyrrolidine-2-carboxamide] had an IC50 of 444 nM.

Consider `Nc1ncnc2c1c(-c1cccc(OCC34CCC(CC3)O4)c1)cn2[C@H]1C[C@@H](N2CC[S+]([O-])CC2)C1` (relative stereo) [Example 232, 5-[3-(7-Oxa-bicyclo[2.2.1]hept-1-ylmethoxy)-phenyl]-7-[cis-3-(1-oxo-thiomorpholin-4-yl)-cyclobutyl]-7H-pyrrolo[2,3-d]pyrimidin-4-ylamine], for which the half-maximal inhibitory concentration (IC50) was 35 to 38 nM.

In turn, `CC1(OC(=O)NC[C@H]2C[C@@H](n3cc(-c4cccc(OCC56CCC(CC5)O6)c4)c4c(N)ncnc43)C2)CC1` [Example 107] yielded an IC50 of 21 nM.

On to `Nc1ncnc2c1c(-c1cccc(OCC34CCC(CC3)O4)c1)cn2[C@H]1CC[C@@H](NC(=O)CC(F)(F)F)CC1` [Example 144, N-((1S,4S)-4-(5-(3-(7-oxabicyclo[2.2.1]heptan-1-ylmethoxy)phenyl)-4-amino-7H-pyrrolo[2,3-d]pyrimidin-7-yl)cyclohexyl)-3,3,3-trifluoropropanamide], for which it took 593 nM to reach half-maximal inhibition (IC50).

`CC1(C)CCC(COc2cccc(-c3cn([C@H]4C[C@@H](CN5CCC[C@@H]5C(N)=O)C4)c4ncnc(N)c34)c2)O1` (stereo partly drawn) [Example 51, (R)-1-(cis-3-{4-amino-5-[3-(5,5-dimethyl-tetrahydro-furan-2-ylmethoxy)-phenyl]-pyrrolo[2,3-d]pyrimidin-7-yl}-cyclobutylmethyl)-pyrrolidine-2-carboxylic acid amide] yielded a concentration for half-maximal inhibition (IC50) of 53 nM.
